From patent US6818651B2, “(Dihydro) isoquinoline derivatives as phosphodiesterase inhibitors” (Altana Pharma AG, priority 2000, dated 2004)

molecular target: T1, recombinant PDE7A1 (Homo sapiens, UniProt Q13946); assay: Inhibition of PDE7 activity, modified SPA (scintillation proximity assay) test; assay type: biochemical; conditions: recombinant PDE7A1 (1000×g supernatant of SF21 cells), 0.5 μM cAMP, [3H]cAMP SPA, 37° C.; read-out: −log IC50 (inhibition of PDE7 activity) (converted)
T1 construct: made in house; host or cells: SF21 insect cells (baculovirus; virus made in SF9)
From the text: Cloning and expression of PDE7: The cDNAs for PDE7A1 and 7A2 (GenBank Acc-: L12052 and u67932, respectively) were isolated, using RT-PCR, from total cellular RNA derived from the T cell line CCRF-CEM and cloned into the cloning vector pCR2.1 (Invitrogen, Groningen, NL) under standard conditions (the manufacturer's instructions). For expression in insect cells, the cDNAs were subcloned into the baculo expression vector pCRBac (Invitrogen, Groningen, NL).
The recombinant baculoviruses were prepared, by means of homologous recombination in SF9 insect cells, by cotransfecting the plasmids containing baculovirus DNA (wild type, wt) Bac-N-Blue (Invitrogen, Groningen, NL) for PDE7A1 and containing Baculo-Gold DNA (Pharmingen, Hamburg) using a standard protocol (Pharmingen, Hamburg). Wt virus-free recombinant virus supernatants were selected using plaque assay methods. After that, high-titre virus supernatants were prepared by amplifying 3 times. For determining the enzyme activities, the PDEs were expressed in SF21 cells by infecting 2×10^6 cells/ml with an MOI (multiplicity of infection) ≈5 in serum-free SF900 medium (Life Technologies, Paisley, UK) in spinner flasks. The cells were cultured at 28° C., and at a rotationall speed of 75 rpm, for 48 hours, after which they were pelleted for 5-10 min at 1000 g and 4° C. and then resuspended in 1×PBS at a concentration of 1-3×10^6 cells/ml. The protein content was determined by the Bradford method (BioRad, Munich) using BSA as the standard.
The SF21 insect cells are resuspended, at a concentration of approx. 10^7 cells/ml, in ice-cold (4° C.) homogenization buffer (20 mM Tris, pH 8.2, containing the following additions: 140 mM NaCl, 3.8 mM KCl, 1 mM EGTA, 1 mM MgCl2, 1 mM β-mercaptoethanol, 2 mM benzamidine, 0.4 mM Pefablock, 10 μM leupeptin, 10 μM pepstatin A, 5 μM trypsin inhibitor) and disrupted by ultrasonication. The homogenate is then centrifuged for 10 min at 1000×g and the supernatant is stored at −80° C. until subsequent use (see below).
The PDE7 activity was inhibited by said compounds in a modified SPA (scintillation proximity assay) test, supplied by Amersham Pharmacia Biotech (see procedural instructions “Phosphodiesterase [3H]cAMP SPA enzyme assay, code TRKQ 7090”), carried out in 96-well microtitre plates (MTPs). The test volume is 100 μl and contains 20 mM Tris buffer (pH 7.4), 0.1 mg of BSA (bovine serum albumin)/ml, 5 mM Mg^2+, 0.5 μM cAMP (including about 50,000 cpm of [3H]cAMP), 2 μl of the respective substance dilution in DMSO and sufficient recombinant PDE7A1 (1000×g supernatant, see above) to ensure that 15-20% of cAMP is converted under said experimental conditions. After a preincubation of 5 min at 37° C., the reaction is started by adding a substrate (cAMP) and the assays are incubated for a further 15 min; after that, they are stopped by adding SPA beads (50 μl). In accordance with the manufacturer's instructions, the SPA beads had previously been resuspended in water and diluted 1:3 (v/v) and added to IBMX (3 mM). After the beads have been sedimented (>30 min), the MTPs are analyzed in commercially available measuring appliances and the corresponding IC50 values of the compounds for the inhibition of PDE7 activity are determined from concentration-effect curves by means of non-linear regression.
The inhibitory values [inhibitory concentration as −logIC50 (mol/l)] which were determined for the compounds according to the invention are shown in the following table 1, in which the numbers of the compounds correspond to the numbers of the examples.

T1 sequence (Q13946 whole entry): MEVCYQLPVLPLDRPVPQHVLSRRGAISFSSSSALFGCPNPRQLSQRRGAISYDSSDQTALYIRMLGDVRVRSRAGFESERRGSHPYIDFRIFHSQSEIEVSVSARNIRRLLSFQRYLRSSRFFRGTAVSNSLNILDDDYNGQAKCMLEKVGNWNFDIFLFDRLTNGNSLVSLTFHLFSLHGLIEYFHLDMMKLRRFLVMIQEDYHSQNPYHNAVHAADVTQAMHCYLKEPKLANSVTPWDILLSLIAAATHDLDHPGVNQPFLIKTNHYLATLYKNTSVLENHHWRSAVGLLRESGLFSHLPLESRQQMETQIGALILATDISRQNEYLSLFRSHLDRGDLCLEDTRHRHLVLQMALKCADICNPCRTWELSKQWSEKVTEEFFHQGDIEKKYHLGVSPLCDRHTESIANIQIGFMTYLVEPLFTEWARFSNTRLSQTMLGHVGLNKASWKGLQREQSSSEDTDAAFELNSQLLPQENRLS

| IC50 | SMILES |
| --- | --- |
| 0.0324 µM | COc1cc(C2=NCCc3ccc(Cl)cc32)ccc1NS(=O)(=O)c1ccc(OC(F)(F)F)cc1 [Compound 1a, 1-[4-(4-Trifluoromethoxybenzenesulfonamido)-3-methoxyphenyl]-7-chloro-3,4-dihydroisoquinoline] |
| 0.389 µM | O=S(=O)(Nc1ccc(C2=NCCc3ccc(F)cc32)cc1)c1ccc2ccccc2c1 [Compound 4e, 1-[4-(Naphthalene-2-sulfonamido)phenyl]-7-fluoro-3,4-dihydroisoquinoline] |
| 0.245 µM | O=S(=O)(C=Cc1ccccc1)Nc1ccc(C2=NCCc3ccc(Cl)cc32)cc1 [Compound 6h, 1-[4-(2-Phenylethenesulfonamido)phenyl]-7-chloro-3,4-dihydroisoquinoline] |

Second part, the molecule before the results:

| SMILES | IC50 |
| --- | --- |
| COc1cc(C2=NCCc3ccc(Cl)cc32)ccc1NS(=O)(=O)c1ccc(C)cc1 [Compound 1b, 1-[4-(4-Methylbenzenesulfonamido)-3-methoxyphenyl]-7-chloro-3,4-dihydroisoquinoline] | 0.123 µM |
| COc1cc(C2=NCCc3ccccc32)ccc1NS(=O)(=O)c1ccc(-c2ccon2)s1 [Compound 2a, 1-[4-(5-(Isoxazol-3-yl)-thiophene-2-sulfonamido)-3-methoxyphenyl]-3,4-dihydroisoquinoline] | 0.295 µM |
| O=S(=O)(Nc1ccc(C2=NCCc3ccc(F)cc32)cc1)c1cccc(C(F)(F)F)c1 [Compound 4c, 1-[4-(3-Trifluoromethylbenzenesulfonamido)phenyl]-7-fluoro-3,4-dihydroisoquinoline] | 0.257 µM |
| O=S(=O)(Nc1ccc(C2=NCCc3ccc(Cl)cc32)cc1)c1cc(Br)c(Cl)s1 [Compound 6m, 1-[4-(4-Bromo-5chlorothiophene-2-sulfonamido)phenyl]-7-chloro-3,4-dihydroisoquinoline] | 0.38 µM |
